Like-named read-outs stand apart in the source and are kept apart here.

One data set is described as follows: in vitro. To be noted: mouse. The protocol: The cytotoxicity of the five selected compounds was tested using murine macrophage cell line J774.2 (ATCC ®TIB-67). […] For this, macrophages were seeded (5 × 10^4 cells/well) in 96-well flat-bottomed microplates and allowed to adhere for 24 h at 37 °C in 5% CO2. […] Thereafter, 20 µL of a 2.5 mM resazurin solution was added to each well, and the plates were incubated for another 4 h. The fluorescence emission was measured as described above. The half-maximal cytotoxicity concentration (CC50) was determined by Probit analysis.

Data set [1] has as its system L. mexicana promastigotes strain MNYC/BZ/62/M379. Briefly: Activity against L. mexicana promastigotes (resazurin method). The conditions noted are these: for SI (selectivity index): SI = CC50/IC50 (J774.2 / L. mexicana promastigotes). (Alamar Blue is a resazurin reagent that responds to reducing activity.)
Procedure: After incubation for 48 h at 26 °C, 20 µL of 2.5 mM resazurin solution was added to each well and incubated for 4 h. […] All assays were carried out in triplicate. The half-maximal inhibitory concentration (IC50) was determined by Probit analysis.
The next data set has as its system rLmTR. Briefly: Kinetic characterization of rLmTR with substrate T[S]2. In kind it is biochemical, Leishmania mexicana. The conditions noted are these: T[S]2 as substrate, 150 µM NADPH. The procedure: (§1) The enzymatic activity of rLmTR was assayed spectrophotometrically as previously described. The reaction mixture contained 40 mM Hepes, pH 7.5, 1 mM EDTA, 150 µM NADPH, and 30 ng rLmTR. The reaction was initiated by adding the substrate (T[S]2) at 400 µM and was allowed to proceed for 1 min. NADPH oxidation was followed at 340 nm, monitored every 20 s, in a Synergy™ H1 microplate reader (Biotek Instruments, Inc. Winooski, VT, USA). The decrease in the absorbance at 340 nm was used to determine the moles of substrate consumed. One unit of enzyme activity is defined as the amount of enzyme required to convert 1 μmol of NADPH to NADP per minute at 25 °C [42].
The kinetic data were analyzed by linear regression fit to Michaelis–Menten kinetics and linearized by the double reciprocal transformation of Lineweaver and Burk.

The subject of a further data set is recombinant LmTR (rLmTR). In words: Inhibition of rLmTR activity (NADPH oxidation at 340 nm). The format is biochemical, Leishmania mexicana. The conditions noted are these: 10% DMSO. The protocol: as §1
(§2) Compounds ZINC04684558, ZINC09642432, ZINC12151998, ZINC14970552, and ZINC11841871 with affinity to the LmTR catalytic site with docking scores of at most −5.29 kcal/mol were selected to evaluate their in vitro inhibition of rLmTR activity. […] The assay was carried out following the conditions previously described to determine the rLmTR activity. The percentage of inhibition was obtained using the following equation:(1) % Inhibition=[…] where A0 is the enzyme activity without inhibitor and A1 is the enzyme activity in the presence of inhibitor.

Data set [2] can be described thus: Solubility in the enzyme assay (observation). The format is physicochemical. The conditions noted are these: prevented testing at higher concentration in the rLmTR assay. The protocol:
as §2

Setting [3] is: Leishmania mexicana, 48 h, read-out: IC50 (leishmanicidal activity), L. mexicana promastigotes, 48 h at 26 °C.

By IC50 is commonly meant the concentration needed to halve the response being measured. For `C[C@@H]1[C@H](O)[C@@H](C)/C=C/C=C/C=C/C=C/C=C/C=C/C=C/[C@H](O[C@@H]2O[C@H](C)[C@@H](O)[C@H](N)[C@@H]2O)C[C@@H]2O[C@](O)(C[C@@H](O)C[C@@H](O)[C@H](O)CC[C@@H](O)C[C@@H](O)CC(=O)O[C@H]1C)C[C@H](O)[C@H]2C(=O)O` [Amphotericin B, reference compound], the CC50 at 24 h in “in vitro” was 7.4 µM. Besides, the IC50 in data set [1] (setting [3]) amounted to 0.11 µM. Besides, in data set [1], the “SI (selectivity index)” value amounted to 67.

On to `CCCCCCCCCCCCCCCCOP(=O)([O-])OCC[N+](C)(C)C` [Miltefosine, reference compound], for which, in “in vitro”, the CC50 at 24 h came out at 141 µM. For the same compound, the IC50 in data set [1] (setting [3]) is 2.98 µM. Moreover, the “SI (selectivity index)” value in data set [1] was 47.

As a reminder, the Km is the concentration of substrate that gives half-maximal velocity. As for `N[C@@H](CCC(=O)N[C@H]1CSSC[C@H](NC(=O)CC[C@H](N)C(=O)O)C(=O)NCC(=O)NCCCNCCCCNC(=O)CNC1=O)C(=O)O` [T[S]2, trypanothione disulfide], the Km in the data set with rLmTR was determined as 173 µM.

In turn, `Cc1nnc(N2CCN(C(=O)Nc3ccc(F)cc3F)CC2)c2nn(-c3ccccc3)c(C)c12` [ZINC09642432] returned a CC50 at 24 h in the data set “in vitro” (J774.2 macrophage cell line) of 335 µM. For the same compound, in the data set with recombinant LmTR (rLmTR) (compound at 300 µM), the “% Inhibition of rLmTR activity” value was 40.1%. The half-inhibitory concentration (IC50) is above 200 µM in data set [1] (setting [3]) and 222 µM in data set [1] (read-out: IC50 (leishmanicidal activity), L. mexicana promastigotes, 48 h at 26 °C). Further, the “SI (selectivity index)” value in data set [1] turned out to be 1.5.

For the compound `CC(=O)N[C@@H]1c2ccccc2C2(CCN(C(=O)c3n[nH]c4ccccc34)CC2)[C@H]1OCc1ccccc1` [ZINC11841871], in data set [2], the Solubility entry is on record as “poor solubility”. The compound also showed a CC50 at 24 h in the data set “in vitro” (J774.2 macrophage cell line) of 103 µM. In the data set with recombinant LmTR (rLmTR) (compound at 150 µM), the “% Inhibition of rLmTR activity” value amounted to 39.5%. Further, in data set [1] (setting [3]), the IC50 was determined as 159 µM. In data set [1], the “SI (selectivity index)” value amounted to 0.6.

`O=C(NCc1ccc2ncccc2c1)c1cnn(-c2ncc3c(n2)-c2ccccc2CCC3)c1C1CC1` [ZINC12151998]: in data set [2], the Solubility result is “poor solubility”. For the same compound, the CC50 at 24 h in “in vitro” (J774.2 macrophage cell line) worked out at 53 µM. Moreover, the “% Inhibition of rLmTR activity” value in the data set on recombinant LmTR (rLmTR) (compound at 100 µM) amounted to 32.9%. Also, the half-maximal inhibitory concentration (IC50) in data set [1] (setting [3]) was found to be 58 µM. For the same compound, the “SI (selectivity index)” value in data set [1] worked out at 0.9.

In the data set “in vitro” (J774.2 macrophage cell line), `CC1(C)C[C@H](NC(=O)c2cnn(-c3ncc4c(n3)-c3ccccc3CC4)c2C2CC2)CCO1` [ZINC14970552] registered a CC50 at 24 h of 219 µM. Moreover, in the data set with recombinant LmTR (rLmTR) (compound at 300 µM), the “% Inhibition of rLmTR activity” value came out at 35.7%. Also, in data set [1] (setting [3]), the IC50 was 147 µM. For the same compound, in data set [1], the “SI (selectivity index)” value is given as 1.4.

(Values after PMC6767256, “Leishmania mexicana Trypanothione Reductase Inhibitors: Computational and Biological Studies” (Molecules, 2019).)
